Measured values taken from ChEMBL document CHEMBL1143445, “Highly cytotoxic and neurotoxic acetogenins of the Annonaceae: new putative biological targets of squamocin detected by activity-based protein profiling” (Bioorg Med Chem Lett, 2008).
Activity calls are given as the source filed them. No cut-off for these calls is given here.

Assays:
[1] = Drug uptake in mitochondria of human HeLa cells assessed as intracellular localization after 6 hrs; format: ADME
[2] = molecular target: COP9 signalosome complex subunit 7b (Homo sapiens) (UniProt Q9H9Q2); experiment: Binding affinity to COP9 signalosome complex subunit 7b in human Jurkat cells at 10 uM after 24 hrs by 2D electrophoresis; format: cell-based
Chain of COP9 signalosome complex subunit 7b (Homo sapiens) (Q9H9Q2 whole entry, one chain of several): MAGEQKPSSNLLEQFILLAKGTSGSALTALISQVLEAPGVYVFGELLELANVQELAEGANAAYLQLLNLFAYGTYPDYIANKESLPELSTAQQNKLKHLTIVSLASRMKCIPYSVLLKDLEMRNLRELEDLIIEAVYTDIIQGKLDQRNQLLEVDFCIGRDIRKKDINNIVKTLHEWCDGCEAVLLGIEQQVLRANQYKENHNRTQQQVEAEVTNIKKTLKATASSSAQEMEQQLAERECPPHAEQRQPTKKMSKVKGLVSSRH

[3] = molecular target: T1, Glutathione S-transferase omega-1 (Homo sapiens) (UniProt P78417); experiment: Binding affinity to glutathione transferase omega 1 in human Jurkat cells at 10 uM after 24 hrs by 2D electrophoresis; format: cell-based
T1 sequence (whole entry): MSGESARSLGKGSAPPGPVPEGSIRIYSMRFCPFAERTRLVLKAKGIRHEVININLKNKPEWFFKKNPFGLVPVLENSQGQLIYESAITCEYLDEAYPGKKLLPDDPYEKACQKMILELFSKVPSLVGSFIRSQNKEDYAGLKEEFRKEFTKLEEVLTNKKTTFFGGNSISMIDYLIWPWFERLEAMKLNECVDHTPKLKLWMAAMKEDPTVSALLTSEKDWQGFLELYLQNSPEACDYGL

[4] = molecular target: Succinate dehydrogenase [ubiquinone] flavoprotein subunit, mitochondrial (Homo sapiens) (UniProt P31040); experiment: Binding affinity to flavoprotein subunit of succinate dehydrogenase in human Jurkat cells at 10 uM after 24 hrs by 2D electrophoresis; format: cell-based
Chain of Succinate dehydrogenase [ubiquinone] flavoprotein subunit, mitochondrial (Homo sapiens) (P31040 whole entry): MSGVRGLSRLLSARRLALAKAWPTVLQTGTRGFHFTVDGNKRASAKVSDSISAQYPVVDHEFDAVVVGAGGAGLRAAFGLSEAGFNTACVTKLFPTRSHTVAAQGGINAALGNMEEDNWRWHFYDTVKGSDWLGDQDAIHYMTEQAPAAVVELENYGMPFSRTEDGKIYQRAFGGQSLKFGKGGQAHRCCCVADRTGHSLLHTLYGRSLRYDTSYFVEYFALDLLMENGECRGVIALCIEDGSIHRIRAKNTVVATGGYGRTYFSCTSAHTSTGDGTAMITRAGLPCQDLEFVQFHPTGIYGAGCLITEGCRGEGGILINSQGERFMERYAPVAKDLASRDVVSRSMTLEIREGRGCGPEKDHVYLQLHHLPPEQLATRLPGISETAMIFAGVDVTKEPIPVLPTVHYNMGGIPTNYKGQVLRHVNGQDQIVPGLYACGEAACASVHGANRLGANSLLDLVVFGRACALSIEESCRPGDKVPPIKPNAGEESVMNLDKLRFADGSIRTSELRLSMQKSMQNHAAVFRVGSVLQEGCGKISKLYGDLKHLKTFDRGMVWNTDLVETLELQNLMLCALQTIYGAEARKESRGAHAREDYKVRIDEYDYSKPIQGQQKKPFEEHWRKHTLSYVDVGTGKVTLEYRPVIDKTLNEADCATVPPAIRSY

[5] = molecular target: Protein disulfide-isomerase (Homo sapiens) (UniProt P07237); experiment: Binding affinity to disulfide isomerase in human Jurkat cells at 10 uM after 24 hrs by 2D electrophoresis; format: cell-based
Chain of Protein disulfide-isomerase (Homo sapiens) (P07237 18-508 limits assumed): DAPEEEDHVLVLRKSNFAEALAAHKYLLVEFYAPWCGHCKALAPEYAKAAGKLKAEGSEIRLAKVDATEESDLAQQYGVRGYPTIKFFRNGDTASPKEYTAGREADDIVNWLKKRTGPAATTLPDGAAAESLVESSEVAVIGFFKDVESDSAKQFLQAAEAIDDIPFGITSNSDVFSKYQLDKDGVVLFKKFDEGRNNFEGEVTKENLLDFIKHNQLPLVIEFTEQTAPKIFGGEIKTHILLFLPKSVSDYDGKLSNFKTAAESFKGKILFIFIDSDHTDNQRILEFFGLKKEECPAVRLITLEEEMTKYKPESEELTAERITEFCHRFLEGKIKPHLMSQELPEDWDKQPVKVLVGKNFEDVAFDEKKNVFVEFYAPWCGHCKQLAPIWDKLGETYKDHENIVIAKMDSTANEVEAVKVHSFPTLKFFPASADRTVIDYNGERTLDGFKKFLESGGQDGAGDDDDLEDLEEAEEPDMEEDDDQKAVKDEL

| Activity [1] | Activity [2] | Activity [3] | Activity [4] | Activity [5] | Compound |
| --- | --- | --- | --- | --- | --- |
| 71% | Active | Active | Active | Active | CCCCCC[C@H](CCC[C@H](O)[C@H]1CC[C@@H]([C@H]2CC[C@@H]([C@H](O)CCCCCCCCCCCC3=C[C@H](C)OC3=O)O2)O1)n1cc(CCc2ccc3c(c2)Oc2cc(O)ccc2C32OC(=O)c3ccccc32)nn1 (stereo partly specified) |
| 62% | – | – | – | – | CCCCCC[C@H](O)CCC[C@H](O)[C@H]1CC[C@@H]([C@H]2CC[C@@H]([C@H](O)CCCCCCCCCCCn3cc(COc4ccc5c(c4)Oc4cc(O)ccc4C54OC(=O)c5ccccc54)nn3)O2)O1 (stereo partly specified) |
